Among the data in article PMC6039549, “The Sodium Sialic Acid Symporter From Staphylococcus aureus Has Altered Substrate Specificity” (Frontiers in Chemistry, 2018) are Kd values, retold here.

Assay [1] concerns the target T1, SaSiaT (sodium sialic acid symporter) (Staphylococcus aureus, UniProt A0A0H2XJ46).
T1 construct: gene SAUSA300_0314; recombinant SaSiaT, GFP-tag cleaved with HRV3C protease, purified in DDM
Nature of the assay: isothermal titration calorimetry (n = […]); microscale thermophoresis gives Kd =[…]; proteoliposome transport KM […]. In kind it is binding.

For assay [2], the target named is T1, SaSiaT (sodium sialic acid symporter). Briefly: isothermal titration calorimetry (n = […]); microscale thermophoresis gives Kd =[…]. In kind it is binding.

T1 sequence (A0A0H2XJ46 entry or part of it): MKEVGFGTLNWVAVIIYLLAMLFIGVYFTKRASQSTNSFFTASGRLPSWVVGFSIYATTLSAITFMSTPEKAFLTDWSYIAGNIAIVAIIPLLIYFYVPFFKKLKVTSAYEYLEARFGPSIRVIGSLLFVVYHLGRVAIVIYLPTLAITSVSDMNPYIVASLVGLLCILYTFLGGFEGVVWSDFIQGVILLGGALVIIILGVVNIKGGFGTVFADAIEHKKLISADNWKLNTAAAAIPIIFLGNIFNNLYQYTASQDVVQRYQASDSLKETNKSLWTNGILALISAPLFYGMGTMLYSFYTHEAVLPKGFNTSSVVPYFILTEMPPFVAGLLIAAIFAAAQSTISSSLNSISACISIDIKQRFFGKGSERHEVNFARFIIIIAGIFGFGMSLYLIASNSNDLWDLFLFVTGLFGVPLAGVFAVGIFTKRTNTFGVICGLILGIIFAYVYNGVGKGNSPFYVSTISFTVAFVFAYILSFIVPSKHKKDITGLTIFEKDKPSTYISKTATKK

For orientation: Kd means the constant that tells how readily two partners part at equilibrium. A low value points to tighter binding. Regarding `CC(=O)N[C@H]1[C@H]([C@H](O)[C@H](O)CO)OC(O)(C(=O)O)C[C@@H]1O` (some centres unmarked) [Neu5Ac, N-acetylneuraminic acid], the equilibrium dissociation constant (Kd) in assay [1] was determined as 106 ± 2 µM.

Molecule `O=C(CO)N[C@H]1[C@H]([C@H](O)[C@H](O)CO)O[C@@](O)(C(=O)O)C[C@@H]1O` [Neu5Gc, N-glycolylneuraminic acid] showed a Kd in assay [2] of 18 ± 2 µM.
